PMC5306062, “Pharmacology and toxicology of the novel investigational agent Cantrixil (TRX-E-002-1)” (Cancer Chemotherapy and Pharmacology, 2016)

Experiments:
[1] = tested on: caspases 3/7 and 9; experiment: Caspase activity in OCSC2 cells; type: cell-based, human
Method: (§1) The role of caspases and intracellular signalling pathways in the anticancer activity of TRX-E-002-1 was investigated in OCSC2 ovarian cancer stem cells. […] TRX-E-002-1 also modulated phosphorylation of intracellular signalling molecules, with decreased levels of pERK (phosphorylated extracellular signal-regulated kinase) and increased levels of phosphorylated c-Jun (p–c-Jun). Activated p–c-Jun levels increased progressively over the 24-h incubation period in response to both concentrations of TRX-E-002-1 tested. […] Increased p–c-Jun and decreased pERK levels were observed following incubation of OCSC2 cells after only 2-h’ exposure, indicating these changes are one of the earliest effects of TRX-E-002-1 treatment.

[2] = Rat GLP 28-day repeat-dose intraperitoneal toxicity study; type: in vivo, SD rats; details: for half-life / Tmax / NOAEL at 28 days / Cmax: rat; for half-life / Tmax / Cmax: plasma, ip; for half-life: read-out: estimated plasma elimination half-life; for NOAEL at 28 days: in vivo
Method: TRX-E-002-1 peak plasma concentrations were observed 0.25 – 0.5 h after dosing, except for mid-dose females on Day 1 (T max = 1 h). […] Mean plasma TRX-E-002-1 concentrations were roughly proportional to dose and were generally higher in males than in females. […] AUClast values on Day 28 tended to be higher than those on Day 1, except in low-dose males and high-dose females (Table 2), indicating slight accumulation of TRX-E-002-1 with daily dosing.
No deaths were observed during the study. […] At 10 mg/kg, reduced quantity of faeces was observed during the first 1 or 2 weeks in all animals. During the recovery period, faeces were normal, although anogenital staining persisted up to 4 days after cessation of dosing in one high-dose male.
Body weight gain was reduced over Days 1–28 in high-dose males, and during the first treatment week in mid-dose males and high-dose females. Mean body weights at the end of the dosing period were 99.5, 95.7 and 89.2% of control values in males at 0.5, 3 and 10 mg/kg/day, respectively; corresponding values in females were 99.8, 97.8 and 97.8%, respectively.
Treatment-related macroscopic abnormalities at the terminal necropsy were limited to distention of the caecum and/or colon in both sexes at 10 mg/kg/day, and obstruction of the colon in 3/10 males at this dose level. No macroscopic findings were present after the recovery period. […] Thymic weight was reduced in males at 3 and 10 mg/kg/day and was increased in females at 10 mg/kg/day. Testicular and epididymal weights were still reduced in the 10 mg/kg/day group after the recovery period.
Similar changes were also seen after the 14-day recovery period (significant in males only).
In summary, the major toxicity finding in rats dosed once daily for 28 days with TRX-E-002-1 was degeneration of seminiferous tubules in the testes and of sperm in the epididymides at the high dose of 10 mg/kg/day. Other findings including transient faecal changes, reductions in weight gain and food consumption, serum biochemical changes, macroscopic lesions in the large intestine and atrophy of the salivary glands were considered non-adverse. The NOAEL was considered to be 3 mg/kg/day in male rats and 10 mg/kg/day in females. The greater sensitivity of male rats compared with females would appear to be associated with higher cumulative systemic exposure over the 28-day repeat-dose period.

[3] = Rat pharmacokinetics after single intraperitoneal injection of 100 mg/kg; type: in vivo, Sprague–Dawley rats; details: for AUC(0-inf) / Tmax / half-life: Sprague-Dawley, rat, ip, plasma
Method: The pharmacokinetics of TRX-E-002-1 was evaluated in male female Sprague–Dawley rats following a single intraperitoneal injection of 100 mg/kg TRX-E-002-1 in 20% SBECD vehicle. Absorption was rapid, with C max mean plasma concentrations reached 0.25/1 h after dosing in female/male rats. […] Mean plasma levels decreased to below the limit of quantification by 24 h (not shown). The AUC0−∞ value was 29,537 and 44,702 ng h/mL in female and male rats, respectively (Table 2). High tissue levels were observed 0.5–6 h after dosing, with levels higher than the plasma concentration in pancreas, ovaries, large intestine, skin, kidneys, liver, stomach and adrenal glands (not shown). Treatment of plasma and tissue samples with glucuronidase indicated the presence of low levels of a glucuronide conjugate of TRX-E-002-1 (not shown). Other metabolic pathways have not yet been investigated. […] Parent drug was excreted in the urine and faeces, and high levels of the glucuronide metabolite were found in the faeces.
Tissue concentrations of total drug (parent + glucuronide) were also similar to those in plasma except in liver, where they were 2–3 times higher.

[4] = tested on: recurrent ovarian cancer model; experiment: Recurrent ovarian cancer model after paclitaxel (OCSC2-inoculated mice); type: in vivo
Method: In vivo, TRX-E-002-1, formulated in 20% SBECD, was active in a disseminated ovarian cancer model and a recurrent ovarian cancer model in which tumour recurrence is investigated following initial treatment of the OCSC2-inoculated mice with paclitaxel. In both models, TRX-E-002-1 inhibited tumour growth following once daily intraperitoneal administration.
In the recurrent ovarian cancer model, once daily intraperitoneal administration of 100 mg/kg TRX-E-002-1 in 20% SBECD for 4 weeks inhibited tumour growth and reduced terminal tumour burden by 77%.

[5] = tested on: OCSC2 ovarian cancer stem cells; experiment: Western blots of caspase 2 and signalling molecules in OCSC2 cells; type: cell-based, human; details: Western blot
Method: as §1

[6] = 100 mg/kg i.p. once daily in 20% SBECD for 4 weeks

Q: With COc1cc([C@@H]2COc3c(ccc(O)c3C)[C@@H]2c2ccc(O)cc2)cc(OC)c1O [TRX-E-002-1, (+) cis-4-(para-hydroxyphenyl)-7,4′-dihydroxy-3′,5′-dimethoxy-8-methylisoflavan] as the compound, how does the “activity of caspases 3/7 and 9” value [1] read?
A: markedly increased

Q: And the “decreases in total protein, albumin and globulin” value ([2]; 10 mg/kg/day, males and females, end of 28-day treatment)?
A: ≤ 8%

Q: What about the deaths ([2]; 0.5, 3 or 10 mg/kg/day up to 28 days) of the same compound?
A: No deaths

Q: And the half-life ([2]; both sexes, Sprague-Dawley, Day 1, across sexes and doses)?
A: 0.7 to 1.4 h

Q: And the half-life ([2]; both sexes, Sprague-Dawley, Day 28)?
A: 0.9 to 2.3 h

Q: And the Tmax ([2]; both sexes, Sprague-Dawley, all groups except mid-dose females on Day 1, read-out: time of peak plasma concentrations)?
A: 0.25 to 0.5 h

Q: What about the NOAEL at 28 days ([2]; female, SD) of the same compound?
A: 10 mg/kg/day

Q: What about the Cmax ([2]; female, SD, Day 1, 0.5 mg/kg, females) of the same compound?
A: 33.4 ng/mL

Q: What about the Cmax ([2]; female, SD, Day 1, 3 mg/kg, females) of the same compound?
A: 150 ng/mL

Q: And the Tmax ([2]; female, Sprague-Dawley, 3 mg/kg, mid-dose females, Day 1, read-out: T max)?
A: 1 h

Q: What about the Cmax ([2]; female, Sprague-Dawley, Day 1, 10 mg/kg, females) of the same compound?
A: 535 ng/mL

Q: And the “mean body weight at end of dosing period” value ([2]; females, 0.5 mg/kg/day)?
A: 99.8 % of control values

Q: What about the “mean body weight at end of dosing period” value ([2]; females, 3 mg/kg/day) of the same compound?
A: 97.8 % of control values

Q: What about the “mean body weight at end of dosing period” value ([2]; females, 10 mg/kg/day) of the same compound?
A: 97.8 % of control values

Q: What about the “mean body weight after the 14-day recovery period” value ([2]; high-dose males) of the same compound?
A: 93.6 % of control value

Q: What about the NOAEL at 28 days ([2]; male, SD) of the same compound?
A: 3 mg/kg/day

Q: What about the Cmax ([2]; male, SD, Day 1, 3 mg/kg, males) of the same compound?
A: 181 ng/mL

Q: And the Cmax ([2]; male, SD, Day 1, 10 mg/kg, males)?
A: 780 ng/mL

Q: And the Cmax ([2]; male, Sprague-Dawley, Day 1, 0.5 mg/kg, males)?
A: 35.4 ng/mL

Q: And the “mean body weight at end of dosing period” value ([2]; males, 0.5 mg/kg/day)?
A: 99.5 % of control values

Q: And the “mean body weight at end of dosing period” value ([2]; males, 3 mg/kg/day)?
A: 95.7 % of control values

Q: And the “mean body weight at end of dosing period” value ([2]; males, 10 mg/kg/day)?
A: 89.2 % of control values

Q: What about the “time by which mean plasma levels were below the limit of quantification” value ([3]; 100 mg/kg i.p.) of the same compound?
A: ≤ 24 h

Q: And the AUC(0-inf) ([3]; female rats, 100 mg/kg i.p.)?
A: 29500 ng·h/mL

Q: And the Tmax ([3]; female rats, 100 mg/kg i.p.)?
A: 0.25 h

Q: What about the AUC(0-inf) ([3]; male rats, 100 mg/kg i.p.) of the same compound?
A: 44700 ng·h/mL

Q: What about the Tmax ([3]; male rats, 100 mg/kg i.p.) of the same compound?
A: 1 h

Q: What about the half-life ([3]; female rats, 100 mg/kg i.p., read-out: T ½ (plasma elimination half-life) (converted)) of the same compound?
A: ~1.3 h

Q: What about the half-life ([3]; male rats, 100 mg/kg i.p., read-out: plasma elimination half-life (converted)) of the same compound?
A: ~1.9 h

Q: And the “plasma unconjugated TRX-E-002-1 as share of total levels (parent + glucuronide)” value ([3]; female rats, up to 6 h after dosing)?
A: approximately 90%

Q: What about the “reduction of terminal tumour burden” value [4, 6] of the same compound?
A: 77%

Q: What about the tumour growth [4, 6] of the same compound?
A: inhibited

Q: And the “efficacy compared with paclitaxel” value ([4]; paclitaxel 12 mg/kg twice weekly)?
A: more effective

Q: What about the “levels of inactive caspase 2” value ([5]; both concentrations) of the same compound?
A: decreased

Q: What about the “levels of phosphorylated c-Jun (p–c-Jun)” value ([5]; progressive over 24 h) of the same compound?
A: increased

Q: And the “levels of pERK” value ([5]; seen after 2 h exposure)?
A: decreased
